Experimental data: patent US20110288114A1, “COMPOSITIONS FOR THE TREATMENT OF FIBROTIC DISEASES OR CONDITIONS” (Kinemed, Inc., priority 2008, published 2011)
Entries after “also recorded” stand apart in the source; their conditions may differ.

Columns and labels:
[1] = as alternative to corticosteroid and/or immunosuppressive drugs; cited from earlier work
[2] = tested on: TGF-β signaling; conditions: low concentrations of paclitaxel; nude mouse model of scleroderma; cited from earlier work
[3] = tested on: liver collagen content (ANIT-induced liver fibrosis); assay: ANIT-induced liver fibrosis: histological collagen content (Masson's Trichrome stain); type: in vivo, mice; conditions: noscapine administered with ANIT, FIG. 10
Description: Mice were fed a diet adulterated with 0.05% (w/w) ANIT or a control diet for two weeks in order to induce a fibrotic response in the liver. The mice were labeled with 8% ^2H2O (Spectra Stable Isotopes, Columbia, Md.) beginning on the day that ANIT administration began. […] A small sample (75 to 80 mg) of the liver was excised from the lateral right lobe, immediately fixed in formalin, and sent for histological examination (Premier Laboratory LLC, Longmont Colo., USA). Briefly, paraffin embedded slides were prepared from the formalin-fixed tissue and then treated with Masson's Trichrome stain for collagen distribution. Prepared slides were scanned, photographed, and subsequently analyzed for collagen content using ImageScope software (Aperio Technologies Inc., Vista Ca). Statistics: An analysis of variance followed by a Dunnett's test for comparison with ANIT/vehicle control was used to analyze the data (SigmaStat). Data were considered significant at p<0.05.

[4] = tested on: collagen synthesis in the liver (ANIT-induced liver fibrosis); assay: ANIT-induced liver fibrosis: fractional synthesis of collagen (2H2O labeling, GC/MS of OHP); type: in vivo, mice; conditions: for amount of newly synthesized collagen in the liver: separate study
Text: Alpha-Naphthylisothiocyanate (ANIT) is a hepatotoxicant that damages biliary cells and hepatocytes. Prolonged exposure to ANIT induces bile duct hyperplasia and biliary fibrosis, as well as liver injury. ANIT is conjugated with glutathione in hepatocytes and secreted into the bile (reviewed in Xu, 2004). However, the ANIT-glutathione complexes are unstable and rapidly dissociate in the bile causing the hepatocytes to reuptake the drug. Recycling can continue for many rounds, delaying ANIT elimination and depleting glutathione. In addition to its direct cytotoxic effects, ANIT also induces a hepatic inflammatory response that contributes to the tissue injury. Chronic administration of ANIT to rodents results in a significant increase in liver collagen and is used as an animal model of liver fibrosis (Xu et al, 2004). […] Inhibition or reversal of the fibrotic response is determined by a reduction in collagen synthesis when compared with the ANIT-vehicle control.
Subjects: Female C57BU6 mice, 10 weeks of age at the start of the study were used. The animals were housed in groups of 5, under standard laboratory conditions, with food and water available ad lib. Study groups are as stated in table 2 (po signifies oral gavage).
Mice were fed a diet adulterated with 0.05% (w/w) ANIT or a control diet for two weeks in order to induce a fibrotic response in the liver. The mice were labeled with 8% ^2H2O (Spectra Stable Isotopes, Columbia, Md.) beginning on the day that ANIT administration began.
On the day following the last drug administration, mice were placed under heavy anesthesia, and the liver was perfused and removed. Liver tissue was homogenized with a MiniBeadbeater 96™ bead mill (Biospec, Bartlesville, Okla.) followed by acetone precipitation and vacuum drying. Proteins were hydrolyzed in 6 N HCl (110° C., 16 hours), dried under vacuum and suspended in 1 mL 50% acetonitrile, 50 mM K2HPO4, pH 11. Pentafluorobenzyl bromide was added before the sealed mixture was incubated (100° C.; 1 hour) and extracted into ethyl acetate. The top layer was removed and dried by addition of solid Na2SO4 followed by vacuum centrifugation. Samples were incubated with 50 μL methyl imidazole and 100 μL MTBSTFA, (100° C. for 30 min). The derivative was extracted in water/petroleum ether and dried with Na2SO4. Selected ion monitoring was at mass-to-charge ratios of 445, 446, and 447 for the OH-proline derivatives. Mole % excess M1 enrichment (EM1) and fractional synthesis (f) are calculated.
Statistics: An analysis of variance followed by a Dunnett's test for comparison with ANIT/vehicle control was used to analyze the data (SigmaStat). Data were considered significant at p<0.05.

[5] = tested on: total collagen (OHP) content of the lung (bleomycin-induced lung fibrosis); assay: Bleomycin-induced lung fibrosis: total OHP content of lung by chloramine-t assay; type: in vivo, mice; conditions: noscapine for 2 weeks after bleomycin 1.5 U/kg
Description: Protocol: Bleomycin (Sigma-Aldrich) was dissolved in sterile saline at a concentration of 1.05 U/ml. 30 μl of the bleomycin solution or the same volume of vehicle (sham control) was installed into the trachea of female C57BI/6 mice by the trans-oral route to yield a dose of 1.5 U/kg of bleomycin. […] Label (8% ^2H2O in drinking water) and drug administration continued for the 2 week study duration. […] In addition to the GC/MS analysis, the absolute amount of collagen in the samples was determined by a chloramine-t assay of total OHP, a well established colorimetric method for determining OHP content. Samples of the original homogenate (400 μl) were hydrolyzed (HCl, 500 μl), dried, re-suspended in 1 ml of assay buffer, and incubated overnight. 150 μl of the suspension was pipetted into wells of a 96 well plate. 75 μl of chloramine-t was added to the well and the plate was incubated at room temperature for 20 min. Dimethylaminobenzaldehyde (75 μl) was then added to each well. The plate was incubated at 60° C. for 15 min before being read on a microquant (Bio-Tek Instruments, Inc. MQX200) at 540 nm. OHP standards were prepared and analyzed with the samples. Results were analyzed using GraphPad Prism to interpolate values from the standard curve. […]

[6] = tested on: OHP content of the liver (ANIT-induced liver fibrosis); assay: ANIT-induced liver fibrosis: absolute amount of OHP in liver by chloramine-t assay; type: in vivo, mice
Description: Mice were fed a diet adulterated with 0.05% (w/w) ANIT or a control diet for two weeks in order to induce a fibrotic response in the liver. The mice were labeled with 8% ^2H2O (Spectra Stable Isotopes, Columbia, Md.) beginning on the day that ANIT administration began. […] In addition to the GC/MS analysis, the absolute amount of OHP in the samples was determined by a chloramine-t assay as described above for the bleomycin studies. Statistics: An analysis of variance followed by a Dunnett's test for comparison with ANIT/vehicle control was used to analyze the data (SigmaStat). Data were considered significant at p<0.05.

[7] = tested on: α-SMA positive lung cells (activated myofibroblasts); assay: Bleomycin-induced lung fibrosis: histology of αSMA positive lung cells; type: in vivo, mice; conditions: relative to vehicle+bleomycin control; 2 weeks after bleomycin; FIG. 4
Description: Protocol: Bleomycin (Sigma-Aldrich) was dissolved in sterile saline at a concentration of 1.05 U/ml. 30 μl of the bleomycin solution or the same volume of vehicle (sham control) was installed into the trachea of female C57BI/6 mice by the trans-oral route to yield a dose of 1.5 U/kg of bleomycin. […] Label (8% ^2H2O in drinking water) and drug administration continued for the 2 week study duration. […] The differentiation of fibroblastic cells into myofibroblasts which express α-smooth muscle actin (α-SMA) is a major process the development of fibrosis. αSMA is a well recognized indicator of activated myofibroblasts. A small sample (5 to 20 mg) of the lung was excised from the center of the left lobe, immediately fixed in formalin, and sent for histological examination (Premier Laboratory LLC, Longmont Colo., USA). Briefly, paraffin embedded slides were prepared from the formalin-fixed tissue and then stained using an antibody for αSMA. Prepared slides were scanned, photographed, and subsequently analyzed for the presence of αSMA positive cells using ImageScope software (Aperio Technologies Inc., Vista Ca). Statistics: An analysis of variance followed by a Dunnett's test for comparison with drug vehicle/bleomycin control was used to analyze the data (SigmaStat). Data were considered significant at p<0.05.

[8] = tested on: collagen synthesis in the lung (bleomycin-induced lung fibrosis); assay: Bleomycin-induced lung fibrosis: fractional synthesis of collagen (2H2O labeling, GC/MS of OHP); type: in vivo, mice
Description: Bleomycin administration induces at least a three fold increase in the fractional synthesis of OHP as measured by GC/MS. Inhibition or reversal of the fibrotic response is determined by a reduction in OHP synthesis when compared with the bleomycin-vehicle control.
Animals: Female C57BU6 mice, 10 weeks of age at the start of the study were used. Food and water were available ad lib for the study duration. Study groups are as stated in table 1.
Protocol: Bleomycin (Sigma-Aldrich) was dissolved in sterile saline at a concentration of 1.05 U/ml. 30 μl of the bleomycin solution or the same volume of vehicle (sham control) was installed into the trachea of female C57BI/6 mice by the trans-oral route to yield a dose of 1.5 U/kg of bleomycin. […] Label (8% ^2H2O in drinking water) and drug administration continued for the 2 week study duration.
On the day following the last drug administration, the mice were placed under heavy anesthesia and blood was collected via cardiac puncture. The lung was perfused with isotonic saline, removed and weighed. The lung was homogenized with a MiniBeadbeater-96™ (Biospec, Bartlesville, Okla.) bead mill, and the total volume of homogenate was determined. The homogenate was subjected to acetone precipitation in order to obtain the total tissue protein for OHP assessment. The proteins were hydrolyzed by incubation in HCl, dried under vacuum and then suspended in a solution of 50% acetonitrile, 50 mM K2HPO4 and pentafluorobenzyl bromide before incubation. Derivatives were extracted into ethyl acetate, and the top layer was removed and dried by vacuum centrifugation. […] The derivatized OHP was analyzed by GC/MS, performed in the negative chemical ionization mode. […] Incorporation of ^2H into OHP was calculated as the molar fraction of molecules with one excess mass unit above the natural abundance fraction (EM1). Fractional synthesis (f) of collagen was calculated as the ratio of the EM1 value in protein-bound OHP to the maximal value possible at the body ^2H2O enrichment present. […]

**Q.** With COc1cc2c(c(OC)c1OC)-c1ccc(OC)c(=O)cc1[C@@H](NC(C)=O)CC2 [Colchicine, colchicine] as the molecule, how does the “safety and efficacy in the treatment of IPF” value [1] read?
**A.** safer, but not effective

**Q.** Which “Smad2 and Smad3 phosphorylation in SSc grafts” value [2] does the source give for CC(=O)O[C@H]1C(=O)[C@@]2(C)[C@H]([C@H](OC(=O)c3ccccc3)[C@]3(O)C[C@H](OC(=O)[C@H](O)[C@@H](NC(=O)c4ccccc4)c4ccccc4)C(C)=C1C3(C)C)[C@]1(OC(C)=O)CO[C@@H]1C[C@@H]2O [Paclitaxel, paclitaxel] here?
**A.** markedly suppressed Smad2 and Smad3 phosphorylation

**Q.** And the “collagen deposition in SSc grafts” value [2]?
**A.** decreased collagen deposition

**Q.** Which “histologically determined collagen content of liver” value [3] does the source give for COc1ccc2c(c1OC)C(=O)O[C@@H]2[C@H]1c2c(cc3c(c2OC)OCO3)CCN1C [noscapine] here?
**A.** significantly decreased ANIT-induced collagen content; also recorded: significant decrease in collagen content

**Q.** And the “ANIT-induced elevation of new OHP (percent labeled OHP, f) in the liver” value ([4]; noscapine at 30 and 100 mg/kg po, p<0.05 vs ANIT/vehicle, FIG. 7)?
**A.** significantly reduced the ANIT-induced elevation of OHP

**Q.** What about the “percent of newly synthesized collagen in the liver (percent labeled OHP, f)” value ([4]; noscapine po (oral gavage) 10, 30, 100 mg/kg with 0.05% ANIT diet for 2 weeks, FIG. 7) of the same molecule?
**A.** dose dependently reduced the percent of newly synthesized collagen

**Q.** What about the “amount of newly synthesized collagen in the liver” value ([4]; noscapine 300 mg/kg by oral gavage once per day with ANIT, FIG. 12) of the same molecule?
**A.** tended to decrease the amount of newly synthesized collagen

**Q.** And the “amount of newly synthesized collagen in the liver” value ([4]; noscapine 300 mg/kg in the diet (2 g/kg food) with ANIT, FIG. 11)?
**A.** tended to decrease the amount of newly synthesized collagen

**Q.** What about the “total collagen (OHP) content of the lung” value ([5]; chloramine-t assay, FIG. 2) of the same molecule?
**A.** blocked by noscapine in a dose related manner

**Q.** What about the “absolute amount of newly synthesized collagen in the lung (f times total OHP content)” value ([5]; FIG. 3) of the same molecule?
**A.** significantly decreased

**Q.** And the “total amount of OHP in the whole liver” value ([6]; chloramine-t assay, noscapine po with ANIT for 2 weeks, vs ANIT plus vehicle control, FIG. 8)?
**A.** significantly reduced the ANIT-induced elevation of OHP content

**Q.** And the “ANIT-induced elevation of collagen synthesis, absolute (f x [OHP]) in the liver” value ([6]; noscapine at 30 and 100 mg/kg po, p<0.05 vs ANIT/vehicle, FIG. 9)?
**A.** significantly reduced the ANIT-induced elevation of collagen synthesis

**Q.** What about the “amount of newly synthesized collagen in the whole liver (f x [OHP])” value ([6]; noscapine po with ANIT for 2 weeks, vs ANIT plus vehicle control, FIG. 9) of the same molecule?
**A.** significantly reduced

**Q.** What about the “number of alpha smooth muscle actin (αSMA) positive cells in lung” value [7] of the same molecule?
**A.** significantly reduced the number of myofibroblasts activated by bleomycin; also recorded: significantly decreased the number of alpha smooth muscle actin (αSMA) positive cells

**Q.** What about the “bleomycin-induced increase of collagen synthesis (fractional synthesis, percent labeled OHP, f)” value ([8]; noscapine 300 mg/kg po (oral gavage) for 2 weeks from the day of bleomycin, FIG. 5) of the same molecule?
**A.** blocked the bleomycin-induced increase of collagen synthesis

**Q.** What about the “percent of newly synthesized collagen (% new OHP, f)” value ([8]; noscapine in diet (2 g/kg food, approx. 300 mg/kg) for 2 weeks from the day of bleomycin, FIG. 6) of the same molecule?
**A.** tended to reduce the % new OH—P, but the effect was not statistically significant; also recorded: tended to reduce the percent of newly synthesized collagen

**Q.** And the “bleomycin-induced increase of collagen synthesis (fractional synthesis, percent labeled OHP, f)” value ([8]; noscapine ip (10, 30, 100 mg/kg) for 2 weeks from the day of bleomycin 1.5 U/kg trans-oral, FIG. 1)?
**A.** blocked the bleomycin-induced increase of collagen synthesis
